Reference: paper PMC8843100, “Development of newly synthesised quinazolinone-based CDK2 inhibitors with potent efficacy against melanoma” (Journal of Enzyme Inhibition and Medicinal Chemistry, 2022)

Experiments:
Test in all cases: NCI-60 single dose screen, sulforhodamine B
Format in all cases: cell-based, human
[1] = system: A498; details: Renal cancer A498; single dose 10^−5 M
Outline: (§1)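 Tested once, at 10^−5 M in DMSO, the compounds stayed on the cells for 2 days before SRB staining. A time-zero control, set one day after seeding, lets cell kill be told apart from growth inhibition.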

[2] = system: A549/ATCC; details: Non-small cell lung cancer A549/ATCC; single dose 10^−5 M
Outline: as §1

[3] = system: BT-549; details: Breast cancer BT-549; single dose 10^−5 M
Outline: as §1

[4] = system: CAKI-1; details: Renal cancer CAKI-1; single dose 10^−5 M
Outline: as §1

[5] = system: COLO 205; details: Colon cancer COLO 205; single dose 10^−5 M
Outline: as §1

[6] = system: EKVX; details: Non-small cell lung cancer EKVX; single dose 10^−5 M
Outline: as §1

[7] = system: HCC-2998; details: Colon cancer HCC-2998; single dose 10^−5 M
Outline: as §1

[8] = system: HOP-92; details: Non-small cell lung cancer HOP-92; single dose 10^−5 M
Outline: as §1

[9] = system: HS 578T; details: Breast cancer HS 578T; single dose 10^−5 M
Outline: as §1

[10] = system: HT29; details: Colon cancer HT29; single dose 10^−5 M
Outline: as §1

[11] = system: K-562; details: Leukaemia K-562; single dose 10^−5 M
Outline: as §1

[12] = system: KM12; details: Colon cancer KM12; single dose 10^−5 M
Outline: as §1

[13] = system: LOX IMVI; details: Melanoma LOX IMVI; single dose 10^−5 M
Outline: as §1

[14] = system: MALME-3M; details: Melanoma MALME-3M; single dose 10^−5 M
Outline: as §1

[15] = system: MDA-MB-231/ATCC; details: Breast cancer MDA-MB-231/ATCC; single dose 10^−5 M
Outline: as §1

[16] = system: MDA-MB-435; details: Melanoma MDA-MB-435; single dose 10^−5 M
Outline: as §1

[17] = system: NCI-H226; details: Non-small cell lung cancer NCI-H226; single dose 10^−5 M
Outline: as §1

[18] = system: NCI-H460; details: Non-small cell lung cancer NCI-H460; single dose 10^−5 M
Outline: as §1

[19] = system: NCI-H522; details: Non-small cell lung cancer NCI-H522; single dose 10^−5 M
Outline: as §1

[20] = system: NCI/ADR-RES; details: Ovarian cancer NCI/ADR-RES; single dose 10^−5 M
Outline: as §1

[21] = system: OVCAR-3; details: Ovarian cancer OVCAR-3; single dose 10^−5 M
Outline: as §1

[22] = system: PC-3; details: Prostate cancer PC-3; single dose 10^−5 M
Outline: as §1

[23] = system: RXF 393; details: Renal cancer RXF 393; single dose 10^−5 M
Outline: as §1

[24] = system: SF-295; details: CNS cancer SF-295; single dose 10^−5 M
Outline: as §1

[25] = system: SN12C; details: Renal cancer SN12C; single dose 10^−5 M
Outline: as §1

[26] = system: SNB-19; details: CNS cancer SNB-19; single dose 10^−5 M
Outline: as §1

[27] = system: SNB-75; details: CNS cancer SNB-75; single dose 10^−5 M
Outline: as §1

[28] = system: SR; details: Leukaemia SR; single dose 10^−5 M
Outline: as §1

[29] = system: SW-620; details: Colon cancer SW-620; single dose 10^−5 M
Outline: as §1

[30] = system: U251; details: CNS cancer U251; single dose 10^−5 M
Outline: as §1

[31] = system: UACC-257; details: Melanoma UACC-257; single dose 10^−5 M
Outline: as §1

[32] = system: UACC-62; details: Melanoma UACC-62; single dose 10^−5 M
Outline: as §1

Row | Compound | GI% at 10^−5 M [1] | GI% at 10^−5 M [2] | GI% at 10^−5 M [3] | GI% at 10^−5 M [4] | GI% at 10^−5 M [5] | GI% at 10^−5 M [6] | GI% at 10^−5 M [7] | GI% at 10^−5 M [8] | GI% at 10^−5 M [9] | GI% at 10^−5 M [10] | GI% at 10^−5 M [11] | GI% at 10^−5 M [12] | GI% at 10^−5 M [13] | GI% at 10^−5 M [14] | GI% at 10^−5 M [15] | GI% at 10^−5 M [16] | GI% at 10^−5 M [17] | GI% at 10^−5 M [18] | GI% at 10^−5 M [19] | GI% at 10^−5 M [20] | further results
1 | O=c1c2ccccc2nc(COc2ccccc2)n1NS(=O)(=O)c1ccccc1 [Compound 5a, N-(4-oxo-2-(phenoxymethyl)quinazolin-3(4H)-yl)benzenesulfonamide] | – (– means GI < 10%) | – (– means GI < 10%) | – (– means GI < 10%) | 15.07% | – (– means GI < 10%) | 15.21% | – (– means GI < 10%) | 10.25% | – (– means GI < 10%) | – (– means GI < 10%) | – (– means GI < 10%) | – (– means GI < 10%) | – (– means GI < 10%) | – (– means GI < 10%) | 13.77% | – (– means GI < 10%) | – (– means GI < 10%) | – (– means GI < 10%) | – (– means GI < 10%) | – (– means GI < 10%) | GI% at 10^−5 M [21]: – (– means GI < 10%); GI% at 10^−5 M [22]: – (– means GI < 10%); GI% at 10^−5 M [23]: – (– means GI < 10%); GI% at 10^−5 M [24]: – (– means GI < 10%); GI% at 10^−5 M [25]: 11.46%; GI% at 10^−5 M [26]: – (– means GI < 10%); GI% at 10^−5 M [27]: 40.06%; GI% at 10^−5 M [28]: – (– means GI < 10%); GI% at 10^−5 M [29]: – (– means GI < 10%); GI% at 10^−5 M [30]: – (– means GI < 10%); GI% at 10^−5 M [31]: – (– means GI < 10%); GI% at 10^−5 M [32]: – (– means GI < 10%)
2 | Cc1ccc(S(=O)(=O)Nn2c(COc3ccccc3)nc3ccccc3c2=O)cc1 [Compound 5b, 4-methyl-N-(4-oxo-2-(phenoxymethyl)quinazolin-3(4H)-yl)benzenesulfonamide] | – (– means GI < 10%) | – (– means GI < 10%) | – (– means GI < 10%) | – (– means GI < 10%) | – (– means GI < 10%) | 13.18% | – (– means GI < 10%) | 10.82% | – (– means GI < 10%) | – (– means GI < 10%) | – (– means GI < 10%) | – (– means GI < 10%) | – (– means GI < 10%) | – (– means GI < 10%) | 10.94% | – (– means GI < 10%) | – (– means GI < 10%) | – (– means GI < 10%) | – (– means GI < 10%) | – (– means GI < 10%) | GI% at 10^−5 M [21]: – (– means GI < 10%); GI% at 10^−5 M [22]: – (– means GI < 10%); GI% at 10^−5 M [23]: 10.27%; GI% at 10^−5 M [24]: – (– means GI < 10%); GI% at 10^−5 M [25]: – (– means GI < 10%); GI% at 10^−5 M [26]: – (– means GI < 10%); GI% at 10^−5 M [27]: 33.03%; GI% at 10^−5 M [28]: – (– means GI < 10%); GI% at 10^−5 M [29]: – (– means GI < 10%); GI% at 10^−5 M [30]: – (– means GI < 10%); GI% at 10^−5 M [31]: – (– means GI < 10%); GI% at 10^−5 M [32]: – (– means GI < 10%)
3 | COc1cc(C=Nn2c(COc3ccccc3)nc3ccccc3c2=O)ccc1O [Compound 6a, 3-((4-hydroxy-3-methoxybenzylidene)amino)-2-(phenoxymethyl)quinazolin-4(3H)-one] | – (– means GI < 10%) | – (– means GI < 10%) | – (– means GI < 10%) | – (– means GI < 10%) | – (– means GI < 10%) | – (– means GI < 10%) | – (– means GI < 10%) | – (– means GI < 10%) | – (– means GI < 10%) | – (– means GI < 10%) | – (– means GI < 10%) | – (– means GI < 10%) | – (– means GI < 10%) | – (– means GI < 10%) | 10.92% | – (– means GI < 10%) | – (– means GI < 10%) | – (– means GI < 10%) | 16.82% | – (– means GI < 10%) | GI% at 10^−5 M [21]: – (– means GI < 10%); GI% at 10^−5 M [22]: – (– means GI < 10%); GI% at 10^−5 M [23]: – (– means GI < 10%); GI% at 10^−5 M [24]: – (– means GI < 10%); GI% at 10^−5 M [25]: 10.37%; GI% at 10^−5 M [26]: – (– means GI < 10%); GI% at 10^−5 M [27]: 13.12%; GI% at 10^−5 M [28]: – (– means GI < 10%); GI% at 10^−5 M [29]: – (– means GI < 10%); GI% at 10^−5 M [30]: – (– means GI < 10%); GI% at 10^−5 M [31]: – (– means GI < 10%); GI% at 10^−5 M [32]: – (– means GI < 10%)
4 | O=c1c2ccccc2nc(COc2ccccc2)n1N=CC=Cc1ccccc1 [Compound 6b, 2-(phenoxymethyl)-3-((3-phenylallylidene)amino)quinazolin-4(3H)-one] | – (– means GI < 10%) | – (– means GI < 10%) | – (– means GI < 10%) | – (– means GI < 10%) | – (– means GI < 10%) | 13.78% | – (– means GI < 10%) | – (– means GI < 10%) | – (– means GI < 10%) | – (– means GI < 10%) | – (– means GI < 10%) | – (– means GI < 10%) | 27.86% | – (– means GI < 10%) | – (– means GI < 10%) | – (– means GI < 10%) | – (– means GI < 10%) | – (– means GI < 10%) | 18.6% | – (– means GI < 10%) | GI% at 10^−5 M [21]: – (– means GI < 10%); GI% at 10^−5 M [22]: 10.39%; GI% at 10^−5 M [23]: – (– means GI < 10%); GI% at 10^−5 M [24]: – (– means GI < 10%); GI% at 10^−5 M [25]: 12.39%; GI% at 10^−5 M [26]: 17.13%; GI% at 10^−5 M [27]: 16.57%; GI% at 10^−5 M [28]: 14.34%; GI% at 10^−5 M [29]: – (– means GI < 10%); GI% at 10^−5 M [30]: – (– means GI < 10%); GI% at 10^−5 M [31]: – (– means GI < 10%); GI% at 10^−5 M [32]: – (– means GI < 10%)
